Test system: KRAS PDC tumor spheroids (HUVEC+MSC), viability
Test: Anticancer human tumor 254851-301-R-J1-PDC patient-derived colon carcinoma cell line growth inhibition [KRAS2]
Conditions: for IC50: curve of first compound; for viability, T/C: stronger effect = lower value
How it was run: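 Combination screen of spheroid viability in tumor-cell co-cultures with endothelial (HUVEC) and mesenchymal stem cell stroma. Each agent was tested in half-log dilutions, topping at clinical Cmax or at 10 microM without a known Cmax.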

[1] = second compound 0.1 µM, first compound 0.0316 µM
[2] = second compound 0.1 µM, first compound 0.1 µM
[3] = second compound 0.1 µM, first compound 0.316 µM
[4] = second compound 0.1 µM, first compound 1 µM
[5] = second compound 0.1 µM, first compound 3.16 µM
[6] = second compound 0.1 µM, first compound 10 µM
[7] = second compound 0.316 µM, first compound 0.0316 µM
[8] = second compound 0.316 µM, first compound 0.1 µM
[9] = second compound 0.316 µM, first compound 0.316 µM
[10] = second compound 0.316 µM, first compound 1 µM
[11] = second compound 0.316 µM, first compound 3.16 µM
[12] = second compound 0.316 µM, first compound 10 µM
[13] = second compound 1 µM, first compound 0.0316 µM
[14] = second compound 1 µM, first compound 0.1 µM
[15] = second compound 1 µM, first compound 0.316 µM
[16] = second compound 1 µM, first compound 1 µM
[17] = second compound 1 µM, first compound 3.16 µM
[18] = second compound 1 µM, first compound 10 µM
[19] = second compound 3.16 µM, first compound 0.0316 µM
[20] = second compound 3.16 µM, first compound 0.1 µM
[21] = second compound 3.16 µM, first compound 0.316 µM
[22] = second compound 3.16 µM, first compound 1 µM
[23] = second compound 3.16 µM, first compound 3.16 µM
[24] = second compound 3.16 µM, first compound 10 µM
[25] = second compound 10 µM, first compound 0.0316 µM
[26] = second compound 10 µM, first compound 0.1 µM
[27] = second compound 10 µM, first compound 0.316 µM
[28] = second compound 10 µM, first compound 1 µM
[29] = second compound 10 µM, first compound 3.16 µM
[30] = second compound 10 µM, first compound 10 µM
[31] = second compound 0.1 µM, first compound 0.01 µM
[32] = second compound 0.316 µM, first compound 0.01 µM
[33] = second compound 1 µM, first compound 0.01 µM
[34] = second compound 3.16 µM, first compound 0.01 µM
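Note: spheroids exposed to compounds for seven days before readout.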
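Throughout, for viability, T/C: 100% = DMSO vehicle control luminescence of the spheroids.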

## COC(=O)c1ccc2c(C(=Nc3ccc(N(C)C(=O)CN4CCN(C)CC4)cc3)c3ccccc3)c(O)[nH]c2c1 + CC1OCC2(CCN(c3cnc(Sc4ccnc(N)c4Cl)c(N)n3)CC2)C1N
Second compound 0.1 µM
  IC50: > 10 µM
Second compound 0.316 µM
  IC50: > 10 µM
Second compound 1 µM
  IC50: > 10 µM
Second compound 3.16 µM
  IC50: > 10 µM
Second compound 10 µM
  IC50: 2.37 µM
[1]
  viability, T/C: 95.4%
[2]
  viability, T/C: 100%
[3]
  viability, T/C: 96%
[4]
  viability, T/C: 95%
[5]
  viability, T/C: 90.4%
[6]
  viability, T/C: 88.6%
[7]
  viability, T/C: 88.3%
[8]
  viability, T/C: 84.5%
[9]
  viability, T/C: 79.5%
[10]
  viability, T/C: 81.8%
[11]
  viability, T/C: 82%
[12]
  viability, T/C: 78.5%
[13]
  viability, T/C: 75.6%
[14]
  viability, T/C: 76.1%
[15]
  viability, T/C: 75.6%
[16]
  viability, T/C: 68.1%
[17]
  viability, T/C: 69.2%
[18]
  viability, T/C: 81.6%
[19]
  viability, T/C: 64.9%
[20]
  viability, T/C: 67.5%
[21]
  viability, T/C: 66%
[22]
  viability, T/C: 65.1%
[23]
  viability, T/C: 55.1%
[24]
  viability, T/C: 63%
[25]
  viability, T/C: 63.5%
[26]
  viability, T/C: 70%
[27]
  viability, T/C: 57.9%
[28]
  viability, T/C: 60.7%
[29]
  viability, T/C: 41.4%
[30]
  viability, T/C: 41.6%

## COc1cc(OC)cc(N(CCNC(C)C)c2ccc3ncc(-c4cnn(C)c4)nc3c2)c1
Compound 0.0316 µM
  viability, T/C: 107% [middle of 5 runs]
Compound 0.1 µM
  viability, T/C: 100% [middle of 5 runs]
Compound 0.316 µM
  viability, T/C: 96.7% [middle of 5 runs]

## COc1cc(Nc2ncc3c(n2)-c2ccc(Cl)cc2C(c2c(F)cccc2OC)=NC3)ccc1C(=O)O + CC1OCC2(CCN(c3cnc(Sc4ccnc(N)c4Cl)c(N)n3)CC2)C1N
Second compound 0.1 µM
  IC50: 0.0875 µM
Second compound 0.316 µM
  IC50: 0.079 µM
Second compound 1 µM
  IC50: 0.0764 µM
Second compound 3.16 µM
  IC50: 0.0614 µM
Second compound 10 µM
  IC50: 0.0414 µM
[1]
  viability, T/C: 91.7%
[2]
  viability, T/C: 39.8%
[3]
  viability, T/C: 28.8%
[4]
  viability, T/C: 24.9%
[5]
  viability, T/C: 17.1%
[6]
  viability, T/C: 7.2%
[7]
  viability, T/C: 81.1%
[8]
  viability, T/C: 37%
[9]
  viability, T/C: 28.2%
[10]
  viability, T/C: 22.6%
[11]
  viability, T/C: 13.8%
[12]
  viability, T/C: 6.88%
[13]
  viability, T/C: 86.1%
[14]
  viability, T/C: 33.1%
[15]
  viability, T/C: 29.1%
[16]
  viability, T/C: 23.1%
[17]
  viability, T/C: 14.6%
[18]
  viability, T/C: 7.07%
[19]
  viability, T/C: 70.9%
[20]
  viability, T/C: 30.7%
[21]
  viability, T/C: 23.9%
[22]
  viability, T/C: 21.7%
[23]
  viability, T/C: 12.3%
[24]
  viability, T/C: 5.89%
[25]
  viability, T/C: 58.1%
[26]
  viability, T/C: 23.1%
[27]
  viability, T/C: 21.1%
[28]
  viability, T/C: 19.8%
[29]
  viability, T/C: 13.8%
[30]
  viability, T/C: 6.31%

## COc1cc2nccc(Oc3ccc(NC(=O)C4(C(=O)Nc5ccc(F)cc5)CC4)cc3)c2cc1OC + COc1cc2nc(C)nc(NC(C)c3cc(N)cc(C(F)(F)F)c3)c2cc1OC1CCOC1
Second compound 0.1 µM
  IC50: > 10 µM
Second compound 0.316 µM
  IC50: > 10 µM
Second compound 1 µM
  IC50: > 10 µM
Second compound 3.16 µM
  IC50: > 10 µM
Second compound 10 µM
  IC50: 2.67 µM
[1]
  viability, T/C: 101%
[2]
  viability, T/C: 109%
[3]
  viability, T/C: 114%
[4]
  viability, T/C: 99%
[5]
  viability, T/C: 58%
[6]
  viability, T/C: 96.4%
[7]
  viability, T/C: 85.9%
[8]
  viability, T/C: 108%
[9]
  viability, T/C: 122%
[10]
  viability, T/C: 90%
[11]
  viability, T/C: 66.2%
[12]
  viability, T/C: 98.8%
[13]
  viability, T/C: 103%
[14]
  viability, T/C: 106%
[15]
  viability, T/C: 104%
[16]
  viability, T/C: 90%
[17]
  viability, T/C: 42.1%
[18]
  viability, T/C: 84.4%
[19]
  viability, T/C: 103%
[20]
  viability, T/C: 104%
[21]
  viability, T/C: 87.7%
[22]
  viability, T/C: 80.6%
[23]
  viability, T/C: 20.9%
[24]
  viability, T/C: 92.7%
[25]
  viability, T/C: 64.5%
[26]
  viability, T/C: 103%
[27]
  viability, T/C: 90%
[28]
  viability, T/C: 67.2%
[29]
  viability, T/C: 4%
[30]
  viability, T/C: 90.1%

## CC(=O)Nc1cccc(-n2c(=O)n(C3CC3)c(=O)c3c(Nc4ccc(I)cc4F)n(C)c(=O)c(C)c32)c1 + C=CC(=O)N1CCN(c2nc(OCC3CCCN3C)nc3c2CCN(c2cccc4cccc(C)c24)C3)CC1CC#N
Second compound 0.0316 µM
  IC50: 0.00565 µM
Second compound 0.1 µM
  IC50: 0.00579 µM
Second compound 0.316 µM
  IC50: 0.00632 µM
Second compound 1 µM
  IC50: 0.00571 µM
Second compound 3.16 µM
  IC50: 0.000569 µM
Second compound 0.0316 µM, first compound 0.0001 µM
  viability, T/C: 103%
Second compound 0.0316 µM, first compound 0.000316 µM
  viability, T/C: 94.3%
Second compound 0.0316 µM, first compound 0.001 µM
  viability, T/C: 89.5%
Second compound 0.0316 µM, first compound 0.00316 µM
  viability, T/C: 72.1%
Second compound 0.0316 µM, first compound 0.01 µM
  viability, T/C: 29.2%
Second compound 0.0316 µM, first compound 0.0316 µM
  viability, T/C: 3.04%
Second compound 0.1 µM, first compound 0.0001 µM
  viability, T/C: 98.1%
Second compound 0.1 µM, first compound 0.000316 µM
  viability, T/C: 106%
Second compound 0.1 µM, first compound 0.001 µM
  viability, T/C: 95.4%
Second compound 0.1 µM, first compound 0.00316 µM
  viability, T/C: 77.9%
[31]
  viability, T/C: 25.1%
[1]
  viability, T/C: 2.8%
Second compound 0.316 µM, first compound 0.0001 µM
  viability, T/C: 102%
Second compound 0.316 µM, first compound 0.000316 µM
  viability, T/C: 114%
Second compound 0.316 µM, first compound 0.001 µM
  viability, T/C: 93.5%
Second compound 0.316 µM, first compound 0.00316 µM
  viability, T/C: 84.9%
[32]
  viability, T/C: 27.5%
[7]
  viability, T/C: 2.51%
Second compound 1 µM, first compound 0.0001 µM
  viability, T/C: 106%
Second compound 1 µM, first compound 0.000316 µM
  viability, T/C: 109%
Second compound 1 µM, first compound 0.001 µM
  viability, T/C: 92.6%
Second compound 1 µM, first compound 0.00316 µM
  viability, T/C: 83.4%
[33]
  viability, T/C: 19.1%
[13]
  viability, T/C: 1.86%
Second compound 3.16 µM, first compound 0.0001 µM
  viability, T/C: 76.9%
Second compound 3.16 µM, first compound 0.000316 µM
  viability, T/C: 52.7%
Second compound 3.16 µM, first compound 0.001 µM
  viability, T/C: 40.3%
Second compound 3.16 µM, first compound 0.00316 µM
  viability, T/C: 39.5%
[34]
  viability, T/C: 0.5%
[19]
  viability, T/C: 0.93%

## CC1COCCN1c1cc(-c2ccnn2C)c2ccnc(-c3ccn[nH]3)c2n1 (stereo not drawn) + C=CC(=O)N1CCN(c2nc(=O)n(-c3c(C)ccnc3C(C)C)c3nc(-c4c(O)cccc4F)c(F)cc23)C(C)C1
Second compound 0.1 µM
  IC50: 0.299 µM
Second compound 0.316 µM
  IC50: 0.288 µM
Second compound 1 µM
  IC50: 0.369 µM
Second compound 3.16 µM
  IC50: 0.0797 µM
Second compound 10 µM
  IC50: 0.186 µM
[31]
  viability, T/C: 112%
[1]
  viability, T/C: 96.8%
[2]
  viability, T/C: 65.9%
[3]
  viability, T/C: 50%
[4]
  viability, T/C: 35.4%
[5]
  viability, T/C: 22%
[32]
  viability, T/C: 96.5%
[7]
  viability, T/C: 96.8%
[8]
  viability, T/C: 74.2%
[9]
  viability, T/C: 47.6%
[10]
  viability, T/C: 32.1%
[11]
  viability, T/C: 23.5%
[33]
  viability, T/C: 87.6%
[13]
  viability, T/C: 85.3%
[14]
  viability, T/C: 66.9%
[15]
  viability, T/C: 51.6%
[16]
  viability, T/C: 36.7%
[17]
  viability, T/C: 20.8%
[34]
  viability, T/C: 74.5%
[19]
  viability, T/C: 70.3%
[20]
  viability, T/C: 45.2%
[21]
  viability, T/C: 27.3%
[22]
  viability, T/C: 29.7%
[23]
  viability, T/C: 34.8%
Second compound 10 µM, first compound 0.01 µM
  viability, T/C: 103%
[25]
  viability, T/C: 87.3%
[26]
  viability, T/C: 59.5%
[27]
  viability, T/C: 40.8%
[28]
  viability, T/C: 29.9%
[29]
  viability, T/C: 22.5%
